Reference: ChEMBL document CHEMBL2401728, “An unexpected Dimroth rearrangement leading to annelated thieno[3,2-d][1,2,3]triazolo[1,5-a]pyrimidines with potent antitumor activity” (Eur J Med Chem, 2013)

How the values were obtained:
Type in all cases: functional
SR = assay: Cytotoxicity against human SR cells after 48 hrs by SRB assay
OVCAR-3 [1] = assay: Cytotoxicity against human OVCAR3 cells assessed as cellular growth at 1 uM after 48 hrs by SRB assay relative to control
HCT-116 [2] = assay: Cytotoxicity against human HCT116 cells assessed as cellular growth at 100 uM after 48 hrs by SRB assay relative to control
OVCAR-4 [3] = assay: Cytotoxicity against human OVCAR4 cells assessed as cellular growth at 0.01 uM after 48 hrs by SRB assay relative to control
SF-268 [4] = assay: Cytotoxicity against human SF268 cells assessed as cellular growth at 100 uM after 48 hrs by SRB assay relative to control
COLO 205 = assay: Cytotoxicity against human COLO205 cells assessed as cellular growth at 1 uM after 48 hrs by SRB assay relative to control
IGROV-1 = assay: Cytotoxicity against human IGROV1 cells after 48 hrs by SRB assay; settings: IGROV-1, 48 h
SN12C = assay: Cytotoxicity against human SN12C cells after 48 hrs by SRB assay
K562 [5] = assay: Cytotoxicity against human K562 cells assessed as cellular growth at 100 uM after 48 hrs by SRB assay relative to control
BT-549 = assay: Cytotoxicity against human BT549 cells assessed as cellular growth at 0.1 uM after 48 hrs by SRB assay relative to control
SF-295 [6] = assay: Cytotoxicity against human SF295 cells assessed as cellular growth at 100 uM after 48 hrs by SRB assay relative to control
NCI-H460 [7] = assay: Cytotoxicity against human NCI-H460 cells assessed as cellular growth at 0.01 uM after 48 hrs by SRB assay relative to control
MDA-MB-468 = assay: Cytotoxicity against human MDA-MB-468 cells assessed as cellular growth at 100 uM after 48 hrs by SRB assay relative to control
SK-MEL-5 = assay: Cytotoxicity against human SK-MEL-5 cells assessed as cellular growth at 100 uM after 48 hrs by SRB assay relative to control
OVCAR-4 [8] = assay: Cytotoxicity against human OVCAR4 cells assessed as cellular growth at 0.1 uM after 48 hrs by SRB assay relative to control
786-0 = assay: Cytotoxicity against human 786-0 cells assessed as cellular growth at 0.01 uM after 48 hrs by SRB assay relative to control
UO-31 = assay: Cytotoxicity against human UO31 cells assessed as cellular growth at 100 uM after 48 hrs by SRB assay relative to control
SK-MEL-28 = assay: Cytotoxicity against human SK-MEL-28 cells assessed as cellular growth at 0.1 uM after 48 hrs by SRB assay relative to control
SF-268 [9] = assay: Cytotoxicity against human SF268 cells after 48 hrs by SRB assay; settings: SF-268, 48 h
OVCAR-4 [10] = assay: Cytotoxicity against human OVCAR4 cells assessed as cellular growth at 1 uM after 48 hrs by SRB assay relative to control
NCI-H460 [11] = assay: Cytotoxicity against human NCI-H460 cells assessed as cellular growth at 100 uM after 48 hrs by SRB assay relative to control
Malme-3M = assay: Cytotoxicity against human MALME-3M cells after 48 hrs by SRB assay
Hs-578T [12] = assay: Cytotoxicity against human Hs578T cells after 48 hrs by SRB assay
SF-295 [13] = assay: Cytotoxicity against human SF295 cells assessed as cellular growth at 0.1 uM after 48 hrs by SRB assay relative to control
K562 [14] = assay: Cytotoxicity against human K562 cells assessed as cellular growth at 0.1 uM after 48 hrs by SRB assay relative to control
NCI-H460 [15] = assay: Cytotoxicity against human NCI-H460 cells after 48 hrs by SRB assay; settings: NCI-H460, 48 h
HOP-92 = assay: Cytotoxicity against human HOP92 cells assessed as cellular growth at 1 uM after 48 hrs by SRB assay relative to control
HL-60(TB) = assay: Cytotoxicity against human HL-60(TB) cells after 48 hrs by SRB assay; settings: HL-60, 48 h
MDA-MB-231 = assay: Cytotoxicity against human MDA-MB-231 cells assessed as cellular growth at 1 uM after 48 hrs by SRB assay relative to control
UACC-257 = assay: Cytotoxicity against human UACC257 cells assessed as cellular growth at 1 uM after 48 hrs by SRB assay relative to control
[16] = Cytotoxicity against human NCI-ADR-RES cells after 48 hrs by SRB assay
OVCAR-3 [17] = assay: Cytotoxicity against human OVCAR3 cells assessed as cellular growth at 0.1 uM after 48 hrs by SRB assay relative to control
LOX IMVI = assay: Cytotoxicity against human LOXIMVI cells assessed as cellular growth at 1 uM after 48 hrs by SRB assay relative to control
Hs-578T [18] = assay: Cytotoxicity against human Hs578T cells assessed as cellular growth at 100 uM after 48 hrs by SRB assay relative to control
HCT-116 [19] = assay: Cytotoxicity against human HCT116 cells assessed as cellular growth at 0.1 uM after 48 hrs by SRB assay relative to control
[20] = Cytotoxicity against human EKVX cells assessed as cellular growth at 0.1 uM after 48 hrs by SRB assay relative to control
[21] = read-out: LC50 (the source's name)
[22] = read-out: pLC50 (the source's name) (converted)

Compound O=C(CCCn1c2c(sc3ccccc32)c(=O)n2nnc(-c3ccccc3)c12)NCCc1c[nH]cn1 has a GI50 (SR; read-out: GI50) of 218 nM, a CC50 (SR; [21]) of 4990 nM and a TGI (SR; read-out: TGI) of 664 nM. It also gave a GI50 (SR; read-out: pGI50 (converted)) of 219 nM, a CC50 (SR; [22]) of 5010 nM and a TGI (SR; read-out: pTGI (converted)) of 661 nM. It also gave an Activity (OVCAR-3 [1]) of 92%, an Activity (HCT-116 [2]) of 3% and an Activity (OVCAR-4 [3]) of 110%. It also gave an Activity (SF-268 [4]) of -69%, an Activity (COLO 205) of 41% and a GI50 (IGROV-1; read-out: GI50) of 99.7 nM. It also gave a CC50 (IGROV-1; [21]) of 5040 nM, a TGI (IGROV-1; read-out: TGI) of 2070 nM and a GI50 (IGROV-1; read-out: pGI50 (converted)) of 100 nM. It also gave a CC50 (IGROV-1; [22]) of 5010 nM, a TGI (IGROV-1; read-out: pTGI (converted)) of 2090 nM and a GI50 (SN12C; read-out: GI50) of 11 nM. The CC50 (SN12C; [21]) was 5510 nM, the TGI (SN12C; read-out: TGI) was 2030 nM and the GI50 (SN12C; read-out: pGI50 (converted)) was 11 nM. It also gave a CC50 (SN12C; [22]) of 5500 nM, a TGI (SN12C; read-out: pTGI (converted)) of 2040 nM and an Activity (K562 [5]) of -100%. The Activity (BT-549) was 90%, the Activity (SF-295 [6]) was -65% and the Activity (NCI-H460 [7]) was 111%. It also gave an Activity (MDA-MB-468) of -100%, an Activity (SK-MEL-5) of -100% and an Activity (OVCAR-4 [8]) of 100%. It also gave an Activity (786-0) of 98%, an Activity (UO-31) of -61% and an Activity (SK-MEL-28) of 121%. For the same compound, the GI50 (SF-268 [9]; read-out: GI50) was 1540 nM, the CC50 (SF-268 [9]; [21]) was 6700 nM and the TGI (SF-268 [9]; read-out: TGI) was 3210 nM. It also gave a GI50 (SF-268 [9]; read-out: pGI50 (converted)) of 1550 nM, a CC50 (SF-268 [9]; [22]) of 6760 nM and a TGI (SF-268 [9]; read-out: pTGI (converted)) of 3240 nM. For the same compound, the Activity (OVCAR-4 [10]) was 91%, the Activity (NCI-H460 [11]) was -15% and the GI50 (Malme-3M; read-out: GI50) was 1580 nM. The CC50 (Malme-3M; [21]) was 6800 nM, the TGI (Malme-3M; read-out: TGI) was 3280 nM and the GI50 (Malme-3M; read-out: pGI50 (converted)) was 1580 nM. It also gave a CC50 (Malme-3M; [22]) of 6760 nM, a TGI (Malme-3M; read-out: pTGI (converted)) of 3310 nM and a GI50 (Hs-578T [12]; read-out: GI50) of 1470 nM. For the same compound, the TGI (Hs-578T [12]; read-out: TGI) was 3820 nM, the GI50 (Hs-578T [12]; read-out: pGI50 (converted)) was 1480 nM and the TGI (Hs-578T [12]; read-out: pTGI (converted)) was 3800 nM. It also gave an Activity (SF-295 [13]) of 70%, an Activity (K562 [14]) of 23% and a GI50 (NCI-H460 [15]; read-out: GI50) of 1590 nM. For the same compound, the TGI (NCI-H460 [15]; read-out: TGI) was 3950 nM, the GI50 (NCI-H460 [15]; read-out: pGI50 (converted)) was 1580 nM and the TGI (NCI-H460 [15]; read-out: pTGI (converted)) was 3980 nM. For the same compound, the Activity (HOP-92) was 93%, the GI50 (HL-60(TB); read-out: GI50) was 72.4 nM and the CC50 (HL-60(TB); [21]) was 22700 nM. The TGI (HL-60(TB); read-out: TGI) was 3210 nM, the GI50 (HL-60(TB); read-out: pGI50 (converted)) was 72.4 nM and the CC50 (HL-60(TB); [22]) was 22900 nM. The TGI (HL-60(TB); read-out: pTGI (converted)) was 3240 nM, the Activity (MDA-MB-231) was 101% and the Activity (UACC-257) was 109%. The GI50 ([16]; read-out: GI50) was 1070 nM, the CC50 [16, 21] was > 100000 nM and the TGI ([16]; read-out: TGI) was > 100000 nM. The GI50 ([16]; read-out: pGI50 (converted)) was 1070 nM, the Activity (OVCAR-3 [17]) was 107% and the Activity (LOX IMVI) was 82%. It also gave an Activity (Hs-578T [18]) of -49%, an Activity (HCT-116 [19]) of 4% and an Activity [20] of 83%.
